Laboratory results: article PMC12481576, “Barbituric Acid Derivatives as Covalent Inhibitors of Leishmania braziliensis Dihydroorotate Dehydrogenase” (Journal of Medicinal Chemistry, 2025)
Like-named read-outs stand apart in the source and are kept apart here.

What was measured:
[1] = Cell viability / cytotoxicity assay (PrestoBlue, 72 h); type: cell-based; conditions: human; THP-1 cell line, 72 h, max 200 μM; read-out: CC50
Protocol: THP-1 cells (American Type Cell Collection, #TIB-202) were acquired in 2019 and stored frozen in liquid nitrogen. The cells were then maintained in RPMI 1640 (Thermo Fisher Scientific, #S31800–022) at 37 °C in a 5% CO2 atmosphere and routinely tested for Mycoplasma contamination by PCR using the primers 5′-[…] and 5′-[…]. To test the toxicity of compounds, 5000 cells were added to 96-well plates with a final volume of 80 μL centrifuged at 400g for 2 min and incubated with 150 ng/mL of phorbol myristate acetate (Merck, #P8139) for 48 h. The medium was replaced, and after 24 h, the compounds were added and tested at decreasing concentrations starting from 200 μM (10 μL/well). After 72 h of incubation, 10 μL of PrestoBlue Cell Viability Reagent (Thermo Fisher Scientific, #A13262) was added per well. After adding the reagent, the cells were incubated for 2 h at 37 °C in a 5% CO2 atmosphere, and fluorescence readings were performed using the SpectraMax M3 reader (excitation at 560 nm and emission at 590 nm).

[2] = molecular target: LbDHODH (Leishmania braziliensis, UniProt E9AI53); test: biochemical; conditions: for IC50: LbDHODH
Chain of LbDHODH (E9AI53 entry or part of it): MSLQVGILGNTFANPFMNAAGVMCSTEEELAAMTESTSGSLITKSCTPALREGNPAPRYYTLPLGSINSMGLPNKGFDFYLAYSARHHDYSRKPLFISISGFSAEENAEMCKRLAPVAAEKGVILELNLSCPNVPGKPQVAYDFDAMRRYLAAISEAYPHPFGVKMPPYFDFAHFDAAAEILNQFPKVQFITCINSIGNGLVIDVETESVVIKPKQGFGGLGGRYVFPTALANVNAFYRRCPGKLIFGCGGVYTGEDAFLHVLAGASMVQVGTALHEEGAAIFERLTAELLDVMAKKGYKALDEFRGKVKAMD
Protocol: To assess the ability of compounds 2a–2i to inhibit LbDHODH via covalent bond formation with Cys^131, we initially screened them at a concentration of 100 μM under two conditions: with and without a 4-h preincubation with the enzyme.
The experiments were performed in a 96-well microplate reader (SpectraMax Plus 384, Molecular Devices, USA), containing the […] of the buffer 60 mM DCIP, 50 mM Tris pH 8.15, 150 mM KCl, 0.1% Triton X-100, 50 μM DHO and 10 μM of LbDHODH at 165 nM. The reaction was monitored every 3 s at 610 nm over a period of 60 s, in triplicate, for the control and each concentration of the inhibitor. All assays were performed without incubation (0h) and with 4-h preincubation of the inhibitor with LbDHODH, using 5% DMSO (v/v) as control. […]. […] The resulting kobs values were plotted as a function of inhibitor concentration, and the data in the initial linear region was fit to determine the slope, which is kinact/KI. All regressions were performed with GraphPad Prism 9.

[3] = molecular target: T1, HsDHODH (Homo sapiens, UniProt Q02127); test: Selectivity assay: HsDHODH single-dose inhibition (DCIP reduction); type: biochemical
T1 construct: made in house
T1 sequence (Q02127 whole entry): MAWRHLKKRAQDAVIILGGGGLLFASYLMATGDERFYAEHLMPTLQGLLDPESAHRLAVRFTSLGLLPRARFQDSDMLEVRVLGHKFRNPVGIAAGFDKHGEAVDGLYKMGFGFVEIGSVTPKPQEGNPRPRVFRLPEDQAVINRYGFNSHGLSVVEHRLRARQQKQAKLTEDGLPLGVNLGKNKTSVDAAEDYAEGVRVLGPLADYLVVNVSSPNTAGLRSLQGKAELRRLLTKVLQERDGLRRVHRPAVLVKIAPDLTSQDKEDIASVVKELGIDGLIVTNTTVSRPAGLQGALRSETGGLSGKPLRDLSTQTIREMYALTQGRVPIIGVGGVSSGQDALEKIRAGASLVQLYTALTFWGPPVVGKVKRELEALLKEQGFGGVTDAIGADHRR
Protocol: […]. This finding highlights the potential of barbituric acid derivatives as selective inhibitors of LbDHODH.
Human DHODH expression and purification were conducted following a protocol previously established in our laboratory. The purification was carried out by affinity chromatography on a Ni-NTA Agarose column (Qiagen[…] Cat. No. 30210). […] The reaction was performed in triplicate, initiated by adding 195 μL of reaction buffer to 5 μL of HsDHODH protein solution for a final concentration of 20 nM enzyme. As a blank, 195 μL of reaction buffer was added to 5 μL of Buffer A. The reaction was monitored at 610 nm every 3 s over 60 s. As a control, 5 μL of enzyme was added to 195 μL of reaction medium without compound. Enzymatic velocity was calculated, and the percentage of relative enzymatic activity was determined relative to the control.

[4] = test system: Leishmania braziliensis promastigotes; test: Leishmanicidal activity, promastigote growth (SYBR Green, 72 h); type: cell-based, Leishmania (V.) braziliensis (MHOM/BR/1975/M2904); conditions: Leishmania braziliensis, L. braziliensis promastigotes, max 200 μM
Protocol: The cultures were adjusted to 4 × 10^6 parasites per mL, and 50 μL of each culture was added on a test plate with 384 wells (Corning, #CLS3658), along with the controls and compounds to be tested. Previously diluted compounds in DMSO were added to plates in decreasing concentrations, with a maximum concentration of 200 μM. Parasites were exposed to a final concentration of DMSO in various dilutes (final = 0.5%), and the culture medium was used as the control for the experiment. […] After adding the lysis buffer, the plates were incubated in the dark for 2 h with gentle shaking. The readings were done using a SpectraMax M3 reader (excitation at 485 nm and emission at 535 nm).

[5] = IC50 0 h, without preincubation
[6] = read-out: Single dose (0h) % activity
[7] = read-out: Single dose (4h) % activity

Row | Structure (SMILES) | CC50 at 72 h [1] [µM] | IC50 [2, 5] [µM] | IC50 ([2]; IC50 4 h, 4-h preincubation) [µM] | activity at 100 µM [2, 6] [%] | activity at 100 µM [2, 7] [%] | activity at 100 µM [3, 6] [%] | activity at 100 µM [3, 7] [%] | EC50 [4] [µM]
1 | COc1cc(CC2C(=O)NC(=O)NC2=O)ccc1O [3c, 5-(4-Hydroxy-3-methoxybenzyl)pyrimidine-2,4,6(1H,3H,5H)-trione] | > 200 | > 100 | > 100 | 98 ± 7 | 60 ± 10 | 87 ± 10 | 79 ± 8 | > 200
2 | O=C1NC(=O)C(Cc2ccc(N3CCOCC3)cc2[N+](=O)[O-])C(=O)N1 [3e, 5-(4-Morpholino-2-nitrobenzyl)pyrimidine-2,4,6(1H,3H,5H)-trione] | > 200 | > 100 | > 100 | 90 ± 10 | 80 ± 20 | 105 ± 12 | 89 ± 9 | 23 ± 16
